{"source": "patent US8329919B2", "about": "“Salt hydrates” (Novartis AG, priority 2002, dated 2012)", "assay": "Thermogravimetry: weight loss, i.e. water loss, as a function of temperature (thermobalance TGS-2)", "type": "physicochemical", "conditions": "heating rate 10 K·min^−1, water-free N2 atmosphere", "procedure": "Using thermogravimetry, in a water-free N2 atmosphere, the weight loss, i.e. the water loss for the tetrahydrate of the calcium salt of valsartan A1,Ca as a function of temperature, was measured at a heating rate of 10 K·min^−1. […]\nUsing thermogravimetry, in a water-free N2 atmosphere, the weight loss, i.e. the water loss for the trihydrate of the calcium salt of valsartan in the polymorphic form B1,Ca as a function of temperature, was measured at a heating rate of 10 K·min^−1.\n(§1) Using thermogravimetry, in a water-free N2 atmosphere, the weight loss, i.e. the water loss for the trihydrate B2,Ca as a function of temperature, was measured at a heating rate of 10 K·min^−1. The results for the polymorph B2,Ca of the trihydrate of the calcium salt of valsartan are illustrated in table 4.\nas §1, with “B3,Ca” for “B2,Ca”, “polymorphic form B3,Ca” for “polymorph B2,Ca”, “5.” for “4.”\nUsing thermogravimetry, in a water-free N2 atmosphere, the weight loss, i.e. the water loss for the di-(calcium salt of valsartan) pentahydrate D1,Ca as a function of temperature, was measured at a heating rate of 10 K·min^−1.\nThe instrument used for the calorimetric data is throughout a DSC Pyris 1 (Differential Scanning calorimeter) obtained from Perkin-Elmer Corp., Norwalk, Conn. USA. The measurements are performed with samples enclosed in a sealed gold specimen container with an internal free volume of ca. 22 microliters, with a sample weight of 2 to 4 mg and with a heating rate of Tr=10K·min^−1. […] The instrument used was a TGS-2 (Perkin-Elmer Corp., Norwalk, Conn. USA) and the measurement was performed in a water free atmosphere. The heating rate selected was 10 K·min^−1. The weight loss is illustrated in table 7.\nThe heating rate selected was 10K·min^−1.\nUsing thermogravimetry, in a water-free N2 atmosphere, the weight loss, i.e. the water loss for the tetrahydrate as a function of temperature, was measured at a heating rate of 10 K·min^−1. The results for the calcium salt of valsartan tetrahydrate A0,Ca are listed in the following: […]\nUsing thermogravimetry, in a water-free N2 atmosphere, the weight loss, i.e. the water loss for the tetrahydrate of the calcium salt of valsartan as a function of temperature, was measured at a heating rate of 10 K·min^−1.", "data": [{"substance": "(S)—N-(1-carboxy-2-methyl-prop-1-yl)-N-pentanoyl-N-[2′-(1H-tetrazol-5-yl)-biphenyl-4-ylmethyl]-amine calcium salt trihydrate [B2,Ca]", "values": [{"measurement": "weight loss or water loss in %", "setting": "temperature 25 °C", "result": 0, "unit": "%"}, {"measurement": "weight loss or water loss in %", "setting": "temperature 25 °C, calcium salt trihydrate, crystalline trihydrate B2,Ca polymorph", "result": "0.1 ± 0.2", "unit": "%"}, {"measurement": "weight loss or water loss in %", "setting": "temperature 50 °C, calcium salt trihydrate, crystalline trihydrate B2,Ca polymorph", "result": "0.9 ± 0.3", "unit": "%"}, {"measurement": "weight loss or water loss in %", "setting": "temperature 75 °C, calcium salt trihydrate, crystalline trihydrate B2,Ca polymorph", "result": "2.2 ± 0.5", "unit": "%"}, {"measurement": "weight loss or water loss in %", "setting": "temperature 100 °C, calcium salt trihydrate, crystalline trihydrate B2,Ca polymorph", "result": "5.8 ± 0.5", "unit": "%"}, {"measurement": "weight loss or water loss in %", "setting": "temperature 125 °C, calcium salt trihydrate, crystalline trihydrate B2,Ca polymorph", "result": "8.9 ± 0.5", "unit": "%"}, {"measurement": "weight loss or water loss in %", "setting": "temperature 150 °C, calcium salt trihydrate, crystalline trihydrate B2,Ca polymorph", "result": "9.9 ± 0.5", "unit": "%"}, {"measurement": "weight loss or water loss in %", "setting": "temperature 175 °C, calcium salt trihydrate, crystalline trihydrate B2,Ca polymorph", "result": "10.2 ± 0.5", "unit": "%"}, {"measurement": "weight loss or water loss in %", "setting": "temperature 200 °C", "result": 9.7, "unit": "%"}, {"measurement": "weight loss or water loss in %", "setting": "temperature 200 °C, calcium salt trihydrate, crystalline trihydrate B2,Ca polymorph", "result": "10.3 ± 0.5", "unit": "%"}, {"measurement": "weight loss or water loss in %", "setting": "temperature 225 °C, calcium salt trihydrate, crystalline trihydrate B2,Ca polymorph", "result": "10.5 ± 0.5", "unit": "%"}, {"measurement": "weight loss or water loss in %", "setting": "temperature 250 °C, calcium salt trihydrate, crystalline trihydrate B2,Ca polymorph", "result": "10.5 ± 0.5", "unit": "%"}, {"measurement": "weight loss or water loss in %", "setting": "temperature 275 °C, calcium salt trihydrate, crystalline trihydrate B2,Ca polymorph", "result": "10.8 ± 0.5", "unit": "%"}]}]}
